The results in this text go back to ChEMBL document CHEMBL1212755, “Factors influencing pharmacokinetics of prophylactic posaconazole in patients undergoing allogeneic stem cell transplantation” (Antimicrob Agents Chemother, 2010).

The CL/F is clearance divided by bioavailability, as obtained after extravascular dosing. One may read the Cmax as the peak of the concentration-time curve.

Assay type in all cases: ADME, organism-based
Data set [1] in a line: Apparent volume of distribution in patient without diarrhea undergoing allogenic hematopoietic stem cell transplantation. As to conditions: human, in vivo; read-out: Vc/F.
The nature of data set [2]: Apparent oral clearance in patient with diarrhea undergoing allogenic hematopoietic stem cell transplantation. As to conditions: human, in vivo.
The nature of data set [3]: Apparent oral clearance in patient without diarrhea undergoing allogenic hematopoietic stem cell transplantation. As to conditions: human, in vivo.
The nature of data set [4]: Apparent volume of distribution in patient undergoing allogenic hematopoietic stem cell transplantation. As to conditions: human, in vivo; read-out: Vc/F.
Data set [5] in a line: Apparent volume of distribution in patient with diarrhea undergoing allogenic hematopoietic stem cell transplantation. As to conditions: human, in vivo; read-out: Vc/F.
Data set [6] is described as follows: Cmax in patient undergoing allogenic hematopoietic stem cell transplantation. As to conditions: human, in vivo.
The species named for a further data set is Homo sapiens. As to the kind of experiment: Drug level in patient undergoing allogenic hematopoietic stem cell transplantation. As to conditions: in vivo.
The nature of data set [7]: Apparent oral clearance in patient undergoing allogenic hematopoietic stem cell transplantation. As to conditions: human, in vivo.

On to `CC[C@@H]([C@H](C)O)n1ncn(-c2ccc(N3CCN(c4ccc(OC[C@@H]5CO[C@@](Cn6cncn6)(c6ccc(F)cc6F)C5)cc4)CC3)cc2)c1=O` [POSACONAZOLE], for which the Vd/F in data set [1] amounted to 2250 L; in data set [4], 835 L; in data set [5], 3800 L. Besides, the CL/F in data set [2] is 1890 mL/min; in data set [3], 1120 mL/min; in data set [7] it was 1260 mL/min. Besides, the Cmax in data set [6] was found to be 654 ng/mL. The compound further gave a Drug uptake in the data set filed under Homo sapiens of 411 µg/L.
